Assays:
P-glycoprotein = P-glycoprotein (Sus scrofa, UniProt K7GMM7); conditions: pig
Text: (§1) The animals (pig, Yorkshire Iandrace, 37.5 kg, n=2) were scanned under terminal aneasthesia (ketamine induced isoflurane aneasthesia) on different days. For both animals an arterial cannula was inserted in one of the femoral arteries.

[1] = Rate of metabolism of [^11C]loperamide (arterial blood sampling) in pig
Text: as §1

Chain of P-glycoprotein (K7GMM7 1-1248): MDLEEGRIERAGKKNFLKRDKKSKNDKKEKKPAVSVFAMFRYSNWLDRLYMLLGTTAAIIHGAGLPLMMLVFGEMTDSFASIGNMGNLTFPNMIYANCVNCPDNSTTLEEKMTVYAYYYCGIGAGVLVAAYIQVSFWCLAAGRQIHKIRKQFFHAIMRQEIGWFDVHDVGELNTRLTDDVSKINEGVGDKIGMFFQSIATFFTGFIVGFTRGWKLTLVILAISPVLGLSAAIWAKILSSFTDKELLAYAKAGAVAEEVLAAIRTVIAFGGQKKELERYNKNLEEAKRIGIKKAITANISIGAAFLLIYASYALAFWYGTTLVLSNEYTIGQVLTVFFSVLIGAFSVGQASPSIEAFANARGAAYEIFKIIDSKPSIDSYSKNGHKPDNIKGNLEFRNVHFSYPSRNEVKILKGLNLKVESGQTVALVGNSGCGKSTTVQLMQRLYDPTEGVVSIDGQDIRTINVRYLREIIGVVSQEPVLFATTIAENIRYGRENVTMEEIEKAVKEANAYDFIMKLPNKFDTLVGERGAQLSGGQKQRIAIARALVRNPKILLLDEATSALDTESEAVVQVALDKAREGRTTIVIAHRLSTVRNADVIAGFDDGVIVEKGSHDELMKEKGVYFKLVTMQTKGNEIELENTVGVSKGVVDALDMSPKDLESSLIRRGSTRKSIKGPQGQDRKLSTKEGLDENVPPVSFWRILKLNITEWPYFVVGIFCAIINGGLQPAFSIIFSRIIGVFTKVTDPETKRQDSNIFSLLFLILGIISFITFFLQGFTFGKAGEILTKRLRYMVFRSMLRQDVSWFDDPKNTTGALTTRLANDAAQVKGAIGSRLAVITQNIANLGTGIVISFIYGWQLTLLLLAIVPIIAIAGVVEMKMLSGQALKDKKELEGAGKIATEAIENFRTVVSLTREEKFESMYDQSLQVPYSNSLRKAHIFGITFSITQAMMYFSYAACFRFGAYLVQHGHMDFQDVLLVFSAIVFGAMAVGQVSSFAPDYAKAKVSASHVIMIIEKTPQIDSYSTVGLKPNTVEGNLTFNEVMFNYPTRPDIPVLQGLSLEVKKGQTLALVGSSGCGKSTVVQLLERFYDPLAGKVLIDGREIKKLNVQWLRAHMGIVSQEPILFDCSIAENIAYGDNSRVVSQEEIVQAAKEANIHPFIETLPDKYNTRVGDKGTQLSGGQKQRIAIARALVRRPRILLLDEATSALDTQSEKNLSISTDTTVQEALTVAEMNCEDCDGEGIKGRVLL

## CN([11CH3])C(=O)C(CCN1CCC(O)(c2ccc(Cl)cc2)CC1)(c1ccccc1)c1ccccc1 [[^11C]loperamide, ^11C—N-methyl-(4-chlorophenyl)+hydroxy-N,N-dimethyl-alpha,alpha-diphenyl-1-piperidinebutyramide]
P-glycoprotein; at a dose of 40-50 mg/kg Cyclosporin A i.v. 30 min prior
  Maximum increase of CNS penetration for the brain as a whole: 7 fold
P-glycoprotein; i.v. 1 min bolus, baseline conditions, PET
  % injected dose/L (CNS penetration): below 1%
P-glycoprotein; i.v. various doses of cyclosporin A 30 min prior to injection
  radioactive signal in the brain as measured with PET scanning: dose dependent increase
[1]; at doses of CsA >10 mg/kg
  rate of metabolism: parent at 60 min post administration: approx. 80 % parent
[1]; without CsA >10 mg/kg (before decrease)
  rate of metabolism: parent at 60 min post administration: approx. 50 % parent

Reference: patent publication US20070041899A1, “Radiolabelled substrates” (priority 2003, published 2007)
